Five molecules from patent publication US20240083919A1, “Metal Complexes and Methods for the Same” (Colgate-Palmolive Company, priority 2020, published 2024) can be followed below.

In brackets after ≈: the same amount, converted by molar mass. Like-named read-outs stand apart in the source and are kept apart here.

One assay has as its system Malassezia furfur. As to the kind of experiment: MIC by doubling dilutions, visual turbidity, Malassezia furfur. It is filed as cell-based. Conditions: for MIC: about 35° C., 3 to 5 days, highest dilution that completely inhibited growth; for Final Dilution (Ratio): doubling dilutions from initial concentration 0.5% (CHA-Zn) or 1% (others). The procedure:
A suspension of Malassezia furfur was also prepared and exposed to each of the series of doubling dilutions. The samples were incubated at about 35° C. for 3 to 5 days or until growth was apparent in a growth control tube. Following incubation, each of the samples were visually examined for growth on the basis of turbidity.

In another assay the test system is Trichophyton rubrum. Nature of the assay: MIC by doubling dilutions, visual turbidity, Trichophyton rubrum. In kind it is cell-based. As to conditions: for MIC: about 35° C., 3 to 14 days, highest dilution that completely inhibited growth; for Final Dilution (Ratio): doubling dilutions from initial concentration 0.5% (CHA-Zn) or 1% (others). The procedure: A suspension of Trichophyton rubrum was also prepared and exposed to each of the series of doubling dilutions. The samples were incubated at about 35° C. for 3 to 14 days or until growth was apparent in a growth control tube. Following incubation, each of the samples were visually examined for growth on the basis of turbidity. […] It should be appreciated that a relatively lower MIC value indicates a relatively greater efficacy against the microbe.

For `CCCCCCCC(=O)NO` [CHA, caprylhydroxamic acid], the MIC in the assay with Malassezia furfur (read-out: MIC) is roughly 312 µg/mL (≈ 1960 µM); with Trichophyton rubrum (read-out: MIC), roughly 156 µg/mL (≈ 980 µM). Further, the “Final Dilution (Ratio)” value worked out at 32 Ratio in the assay on Malassezia furfur and 64 Ratio with Trichophyton rubrum.

Regarding `Cc1cc(CC(C)CC(C)(C)C)n(O)c(=O)c1.NCCO` (stereo not drawn) [Piroctone Olamine], in the assay on Malassezia furfur, the MIC is recorded as 156 ppm and the “Final Dilution (Ratio)” value is 64 Ratio.

As to `O=[N+]([O-])[O-].O=[N+]([O-])[O-].[Zn+2]` [Zinc Nitrate (Zn(NO3)2), zinc nitrate], the MIC against Malassezia furfur is on record as greater than 5000 ppm; against Malassezia furfur (listed as zinc nitrate), greater than 5000 ppm; against Trichophyton rubrum, roughly 2500 ppm. In addition, the figures for the “Final Dilution (Ratio)” value in the assay on Malassezia furfur and with Trichophyton rubrum were 2 Ratio and 4 Ratio, respectively.

On to “caprylhydroxamic-zinc complex [CHA-Zn complex]”, for which the “Final Dilution (Ratio)” value in the assay with Malassezia furfur and in the assay with Trichophyton rubrum was 64 Ratio each time.

Turning to zinc pyrithione [Zinc pyrithione (ZPT)], in the assay on Trichophyton rubrum, the MIC came to 20 ppm and the “Final Dilution (Ratio)” value is listed as 512 Ratio.
